According to patent publication US10710978B2, “STK4 inhibitors for treatment of hematologic malignancies” (Dana-Farber Cancer Institute, Inc., priority 2015, dated 2020):
Where two headings read alike, the source gives them in different places.

What was measured:
Test in all cases: KiNativ assay
Type in all cases: binding
Settings in all cases: H929 live cell
ATR = ATR (Homo sapiens (Human), UniProt Q13535)
Procedure: (§1) Biochemical IC50s of the compounds of the present disclosure against various kinases were measured in a KiNativ assay. Compounds were screened in duplicate at 10 μM in H929 live cell. IC50 was measured via Mass spectroscopy (MS).

MASTL = MASTL (Homo sapiens (Human), UniProt Q96GX5)
Procedure: as §1

TBK1 = TBK1 (Homo sapiens (Human), UniProt Q9UHD2)
Procedure: as §1

[1] = tested on: RSK1 domain1, RSK2 domain1, RSK3 domain1
Procedure: as §1

MAPKAPK2, MAPKAPK3 = tested on: MAPKAPK2, MAPKAPK3
Procedure: as §1

MAP2K1 = MAP2K1 (Homo sapiens (Human), UniProt Q02750)
Sequence of MAP2K1 (Q02750 whole entry): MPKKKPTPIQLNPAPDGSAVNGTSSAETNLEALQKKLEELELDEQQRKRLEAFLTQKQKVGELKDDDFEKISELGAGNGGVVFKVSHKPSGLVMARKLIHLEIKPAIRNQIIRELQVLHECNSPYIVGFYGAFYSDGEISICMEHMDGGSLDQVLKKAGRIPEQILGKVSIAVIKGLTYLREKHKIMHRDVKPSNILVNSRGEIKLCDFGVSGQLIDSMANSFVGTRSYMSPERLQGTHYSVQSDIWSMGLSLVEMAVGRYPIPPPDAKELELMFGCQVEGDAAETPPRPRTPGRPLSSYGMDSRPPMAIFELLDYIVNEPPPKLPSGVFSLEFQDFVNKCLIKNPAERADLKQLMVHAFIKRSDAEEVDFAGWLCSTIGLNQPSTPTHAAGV
Procedure: as §1

MST4, YSK1 = tested on: MST4, YSK1
Procedure: as §1

Erk1 = Erk1 (Homo sapiens (Human), UniProt P27361)
Procedure: as §1

MST4 = tested on: MST4
Procedure: as §1

CDK2 = CDK2 (Homo sapiens (Human), UniProt P24941)
Procedure: as §1

AurA, AurB, AurC = tested on: AurA, AurB, AurC
Procedure: as §1

NDR2 = NDR2 (Homo sapiens (Human), UniProt Q9Y2H1)
Procedure: as §1

RSKL1 = RSKL1 (Homo sapiens (Human), UniProt Q96S38)
Procedure: as §1

RSK2 domain2 = RSK2 domain2 (Homo sapiens (Human), UniProt P51812)
Procedure: as §1

LOK = LOK (Homo sapiens (Human), UniProt O94804)
Procedure: as §1

PIP4K2C = PIP4K2C (Homo sapiens (Human), UniProt Q8TBX8)
Procedure: as §1

FYN, SRC, YES = tested on: FYN, SRC, YES
Procedure: as §1

SRPK2 = SRPK2 (Homo sapiens (Human), UniProt P78362)
Sequence of SRPK2 (P78362 whole entry): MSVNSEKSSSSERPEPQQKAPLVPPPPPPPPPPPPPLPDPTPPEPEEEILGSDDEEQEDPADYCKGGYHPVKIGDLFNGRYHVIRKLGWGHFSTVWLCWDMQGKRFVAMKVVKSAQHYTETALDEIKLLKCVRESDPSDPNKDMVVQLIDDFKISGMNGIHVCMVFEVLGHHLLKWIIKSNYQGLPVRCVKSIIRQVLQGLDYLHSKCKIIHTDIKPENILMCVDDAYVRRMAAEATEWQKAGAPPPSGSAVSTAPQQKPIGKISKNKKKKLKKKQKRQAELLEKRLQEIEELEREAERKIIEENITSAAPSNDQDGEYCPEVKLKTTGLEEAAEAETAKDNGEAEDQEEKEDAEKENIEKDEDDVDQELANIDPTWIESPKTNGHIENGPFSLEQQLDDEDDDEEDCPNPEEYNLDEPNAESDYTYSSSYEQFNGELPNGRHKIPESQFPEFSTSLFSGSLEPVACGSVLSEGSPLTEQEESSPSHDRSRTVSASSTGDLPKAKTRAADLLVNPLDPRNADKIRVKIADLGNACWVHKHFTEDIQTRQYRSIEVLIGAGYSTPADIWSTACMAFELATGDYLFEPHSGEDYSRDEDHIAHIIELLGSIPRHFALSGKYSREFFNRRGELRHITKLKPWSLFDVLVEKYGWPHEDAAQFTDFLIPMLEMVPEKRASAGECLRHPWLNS
Procedure: as §1

GCK = GCK (Homo sapiens (Human), UniProt Q12851)
Sequence of GCK (Q12851 whole entry): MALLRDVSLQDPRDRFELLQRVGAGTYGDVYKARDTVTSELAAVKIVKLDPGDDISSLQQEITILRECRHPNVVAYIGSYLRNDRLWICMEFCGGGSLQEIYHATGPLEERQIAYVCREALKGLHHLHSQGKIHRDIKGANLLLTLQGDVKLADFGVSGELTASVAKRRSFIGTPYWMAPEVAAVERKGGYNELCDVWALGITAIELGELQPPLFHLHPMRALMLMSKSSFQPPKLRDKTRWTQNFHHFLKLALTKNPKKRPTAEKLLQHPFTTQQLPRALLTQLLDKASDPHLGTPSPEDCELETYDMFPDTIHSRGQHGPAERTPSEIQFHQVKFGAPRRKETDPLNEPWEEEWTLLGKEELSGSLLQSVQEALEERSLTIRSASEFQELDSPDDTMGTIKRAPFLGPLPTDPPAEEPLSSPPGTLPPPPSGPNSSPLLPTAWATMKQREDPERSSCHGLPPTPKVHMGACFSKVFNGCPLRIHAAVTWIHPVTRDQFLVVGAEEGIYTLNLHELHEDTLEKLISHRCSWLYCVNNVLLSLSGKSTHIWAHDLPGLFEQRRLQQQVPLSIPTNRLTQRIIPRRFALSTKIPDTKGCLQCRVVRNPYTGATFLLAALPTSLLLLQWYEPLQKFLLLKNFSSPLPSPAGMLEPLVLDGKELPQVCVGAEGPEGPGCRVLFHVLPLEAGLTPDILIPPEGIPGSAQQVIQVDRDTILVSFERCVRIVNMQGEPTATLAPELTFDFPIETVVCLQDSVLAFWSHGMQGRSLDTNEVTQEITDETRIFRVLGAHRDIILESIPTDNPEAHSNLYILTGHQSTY
Procedure: as §1

STLK6 = STLK6 (Homo sapiens (Human), UniProt Q9C0K7)
Procedure: as §1

CK1a = CK1a (Homo sapiens (Human), UniProt P48729)
Sequence of CK1a (P48729 whole entry): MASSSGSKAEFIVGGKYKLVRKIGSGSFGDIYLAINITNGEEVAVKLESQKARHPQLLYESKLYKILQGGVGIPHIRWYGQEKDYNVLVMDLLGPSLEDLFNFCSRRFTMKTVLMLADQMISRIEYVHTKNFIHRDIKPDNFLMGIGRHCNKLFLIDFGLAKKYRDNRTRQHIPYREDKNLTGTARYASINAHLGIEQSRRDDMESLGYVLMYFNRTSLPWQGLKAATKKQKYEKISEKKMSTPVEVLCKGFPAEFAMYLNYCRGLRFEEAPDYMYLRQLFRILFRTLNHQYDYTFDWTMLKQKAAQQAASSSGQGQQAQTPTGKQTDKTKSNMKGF
Procedure: as §1

PAN3 = PAN3 (Homo sapiens (Human), UniProt Q58A45)
Procedure: as §1

NEK9 = NEK9 (Homo sapiens (Human), UniProt Q8TD19)
Sequence of NEK9 (Q8TD19 whole entry): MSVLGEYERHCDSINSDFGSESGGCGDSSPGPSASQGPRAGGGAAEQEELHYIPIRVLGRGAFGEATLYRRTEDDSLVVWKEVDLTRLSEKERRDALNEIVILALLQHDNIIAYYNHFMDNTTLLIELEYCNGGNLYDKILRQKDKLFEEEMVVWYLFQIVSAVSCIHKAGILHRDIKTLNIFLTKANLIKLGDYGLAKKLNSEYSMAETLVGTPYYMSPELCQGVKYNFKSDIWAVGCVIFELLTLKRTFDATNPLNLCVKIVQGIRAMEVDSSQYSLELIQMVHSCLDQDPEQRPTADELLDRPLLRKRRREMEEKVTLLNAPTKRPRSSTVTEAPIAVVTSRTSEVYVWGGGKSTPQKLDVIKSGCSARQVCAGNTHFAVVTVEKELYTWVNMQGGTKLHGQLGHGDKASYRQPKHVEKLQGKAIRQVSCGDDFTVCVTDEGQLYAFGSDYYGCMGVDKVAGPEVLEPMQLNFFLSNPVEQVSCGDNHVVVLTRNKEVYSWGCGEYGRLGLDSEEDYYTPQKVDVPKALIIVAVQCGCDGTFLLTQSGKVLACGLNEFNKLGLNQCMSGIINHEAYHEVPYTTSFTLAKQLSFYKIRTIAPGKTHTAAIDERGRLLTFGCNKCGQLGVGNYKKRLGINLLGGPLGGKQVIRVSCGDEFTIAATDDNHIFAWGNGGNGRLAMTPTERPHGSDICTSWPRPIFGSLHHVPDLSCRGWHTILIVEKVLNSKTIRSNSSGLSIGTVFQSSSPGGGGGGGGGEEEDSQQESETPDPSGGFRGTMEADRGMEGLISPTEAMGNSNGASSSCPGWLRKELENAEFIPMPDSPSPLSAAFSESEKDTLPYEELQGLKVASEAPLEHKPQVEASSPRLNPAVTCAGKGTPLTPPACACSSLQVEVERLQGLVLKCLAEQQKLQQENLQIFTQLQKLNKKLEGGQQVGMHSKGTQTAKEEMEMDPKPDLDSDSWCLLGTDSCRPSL
Procedure: as §1

PKN1 = PKN1 (Homo sapiens (Human), UniProt Q16512)
Procedure: as §1

CHK1 = CHK1 (Homo sapiens (Human), UniProt O14757)
Procedure: as §1

ACK = ACK (Homo sapiens (Human), UniProt Q07912)
Procedure: as §1

PIP5K3 = PIP5K3 (Homo sapiens (Human), UniProt Q9Y2I7)
Procedure: as §1

PITSLRE = tested on: PITSLRE
Procedure: as §1

RSK2 domain1 = RSK2 domain1 (Homo sapiens (Human), UniProt P51812)
Procedure: as §1

MST1, MST2 = tested on: MST1, MST2
Procedure: as §1

CK1g3 = CK1g3 (Homo sapiens (Human), UniProt Q9Y6M4)
Procedure: as §1

TAO2 = TAO2 (Homo sapiens (Human), UniProt Q9UL54)
Sequence of TAO2 (Q9UL54 whole entry): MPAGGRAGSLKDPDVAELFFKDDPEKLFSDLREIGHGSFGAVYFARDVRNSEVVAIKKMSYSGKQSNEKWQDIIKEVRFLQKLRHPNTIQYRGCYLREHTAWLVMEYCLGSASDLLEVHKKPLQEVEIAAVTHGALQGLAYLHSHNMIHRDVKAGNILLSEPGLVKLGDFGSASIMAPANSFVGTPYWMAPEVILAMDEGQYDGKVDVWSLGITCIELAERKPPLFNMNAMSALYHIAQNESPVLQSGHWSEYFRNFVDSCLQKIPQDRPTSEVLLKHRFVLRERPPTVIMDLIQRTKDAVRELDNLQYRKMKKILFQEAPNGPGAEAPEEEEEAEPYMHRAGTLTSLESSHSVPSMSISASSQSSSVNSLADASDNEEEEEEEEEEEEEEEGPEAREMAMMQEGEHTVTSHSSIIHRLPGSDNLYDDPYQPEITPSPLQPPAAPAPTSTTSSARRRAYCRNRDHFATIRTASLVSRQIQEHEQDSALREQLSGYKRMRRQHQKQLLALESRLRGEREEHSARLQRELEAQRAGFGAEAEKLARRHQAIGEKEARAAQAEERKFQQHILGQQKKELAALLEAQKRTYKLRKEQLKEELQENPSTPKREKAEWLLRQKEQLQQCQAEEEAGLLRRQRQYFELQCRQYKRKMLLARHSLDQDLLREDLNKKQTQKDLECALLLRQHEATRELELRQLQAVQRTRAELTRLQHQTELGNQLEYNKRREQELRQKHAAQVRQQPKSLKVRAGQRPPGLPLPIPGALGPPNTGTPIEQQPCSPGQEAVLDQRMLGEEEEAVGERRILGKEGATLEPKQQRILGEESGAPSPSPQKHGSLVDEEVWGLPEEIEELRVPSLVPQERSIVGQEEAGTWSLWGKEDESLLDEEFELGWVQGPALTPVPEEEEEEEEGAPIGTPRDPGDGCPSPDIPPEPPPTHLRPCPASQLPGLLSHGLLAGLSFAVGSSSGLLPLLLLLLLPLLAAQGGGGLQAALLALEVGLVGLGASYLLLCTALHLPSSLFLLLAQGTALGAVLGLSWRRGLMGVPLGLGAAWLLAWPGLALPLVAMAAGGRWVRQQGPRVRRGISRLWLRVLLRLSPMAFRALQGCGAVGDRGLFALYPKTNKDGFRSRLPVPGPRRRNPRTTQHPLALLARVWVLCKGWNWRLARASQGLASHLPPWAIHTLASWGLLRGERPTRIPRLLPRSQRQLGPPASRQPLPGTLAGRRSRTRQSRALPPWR
Procedure: as §1

TLK2 = TLK2 (Homo sapiens (Human), UniProt Q86UE8)
Procedure: as §1

MAP2K4 = MAP2K4 (Homo sapiens (Human), UniProt P45985)
Sequence of MAP2K4 (P45985 whole entry): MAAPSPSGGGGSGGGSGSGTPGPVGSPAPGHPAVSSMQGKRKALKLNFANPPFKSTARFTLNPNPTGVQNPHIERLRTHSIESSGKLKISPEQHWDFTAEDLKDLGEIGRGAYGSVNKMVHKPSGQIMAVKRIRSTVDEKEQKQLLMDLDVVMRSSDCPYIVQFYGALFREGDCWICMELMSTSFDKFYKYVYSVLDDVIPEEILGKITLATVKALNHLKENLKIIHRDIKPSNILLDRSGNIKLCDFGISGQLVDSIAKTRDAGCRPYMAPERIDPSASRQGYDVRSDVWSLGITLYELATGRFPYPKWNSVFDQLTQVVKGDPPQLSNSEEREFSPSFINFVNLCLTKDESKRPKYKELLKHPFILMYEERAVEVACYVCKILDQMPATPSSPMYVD
Procedure: as §1

CN(C1CC1)S(=O)(=O)c1ccc(-c2cnc(N)c(-c3ccc4c(c3)CCNC4=O)c2)c(F)c1 [Compound I-28, 4-(6-amino-5-(1-oxo-1,2,3,4-tetrahydroisoquinolin-6-yl)pyridin-3-yl)-N-cyclopropyl-3-fluoro-N-methylbenzenesulfonamide]
inhibition at 10 µM (ATR; read-out: % inhibition (range)): 0%
inhibition at 10 µM (ATR; read-out: inhibition (10 μM)): -37.5%
inhibition at 10 µM (MASTL; read-out: % inhibition (range)): 0%
inhibition at 10 µM (MASTL; read-out: inhibition (10 μM)): 10.2%
inhibition at 10 µM (TBK1; read-out: % inhibition (range)): 0%
inhibition at 10 µM (TBK1; read-out: inhibition (10 μM)): 3.4%
% inhibition (range) ([1]; 10 μM): 0.0%
inhibition (10 μM) [1]: 13.3%
% inhibition (range) (MAPKAPK2, MAPKAPK3; 10 μM): 0.0%
inhibition (10 μM) (MAPKAPK2, MAPKAPK3): −5.0%
inhibition at 10 µM (MAP2K1; read-out: % inhibition (range)): 0%
inhibition at 10 µM (MAP2K1; read-out: inhibition (10 μM)): -5.5%
% inhibition (range) (MST4, YSK1; 10 μM): 75-90%
inhibition (10 μM) (MST4, YSK1): 76.7%
inhibition at 10 µM (Erk1; read-out: % inhibition (range)): 0%
inhibition at 10 µM (Erk1; read-out: inhibition (10 μM)): 11%
% inhibition (range) (MST4; 10 μM): 50-75%
inhibition (10 μM) (MST4): 63.9%
inhibition at 10 µM (CDK2; read-out: % inhibition (range)): 0%
inhibition at 10 µM (CDK2; read-out: inhibition (10 μM)): 27.6%
% inhibition (range) (AurA, AurB, AurC; 10 μM): 0.0%
inhibition (10 μM) (AurA, AurB, AurC): 21.4%
inhibition at 10 µM (NDR2; read-out: % inhibition (range)): 0%
inhibition at 10 µM (NDR2; read-out: inhibition (10 μM)): 24.2%
inhibition at 10 µM (RSKL1; read-out: % inhibition (range)): 0%
inhibition at 10 µM (RSKL1; read-out: inhibition (10 μM)): -26.1%
inhibition at 10 µM (RSK2 domain2; read-out: % inhibition (range)): 0%
inhibition at 10 µM (RSK2 domain2; read-out: inhibition (10 μM)): -20%
inhibition at 10 µM (LOK; read-out: % inhibition (range)): 75 to 90%
inhibition at 10 µM (LOK; read-out: inhibition (10 μM)): 85.5%
inhibition at 10 µM (PIP4K2C; read-out: % inhibition (range)): 0%
inhibition at 10 µM (PIP4K2C; read-out: inhibition (10 μM)): 11.8%
% inhibition (range) (FYN, SRC, YES; 10 μM): 0.0%
inhibition (10 μM) (FYN, SRC, YES): 2.2%
inhibition at 10 µM (SRPK2; read-out: % inhibition (range)): 0%
inhibition at 10 µM (SRPK2; read-out: inhibition (10 μM)): 8.5%
inhibition at 10 µM (GCK; read-out: % inhibition (range)): 75 to 90%
inhibition at 10 µM (GCK; read-out: inhibition (10 μM)): 84.7%
inhibition at 10 µM (STLK6; read-out: % inhibition (range)): 0%
inhibition at 10 µM (STLK6; read-out: inhibition (10 μM)): 1.4%
inhibition at 10 µM (CK1a; read-out: % inhibition (range)): 35 to 50%
inhibition at 10 µM (CK1a; read-out: inhibition (10 μM)): 37.8%
inhibition at 10 µM (PAN3; read-out: % inhibition (range)): 0%
inhibition at 10 µM (PAN3; read-out: inhibition (10 μM)): -45.1%
inhibition at 10 µM (NEK9; read-out: % inhibition (range)): 0%
inhibition at 10 µM (NEK9; read-out: inhibition (10 μM)): -4.7%
inhibition at 10 µM (PKN1; read-out: % inhibition (range)): 35 to 50%
inhibition at 10 µM (PKN1; read-out: inhibition (10 μM)): 40.5%
inhibition at 10 µM (CHK1; read-out: % inhibition (range)): 0%
inhibition at 10 µM (CHK1; read-out: inhibition (10 μM)): 27.5%
inhibition at 10 µM (ACK; read-out: % inhibition (range)): 0%
inhibition at 10 µM (ACK; read-out: inhibition (10 μM)): -18.8%
inhibition at 10 µM (PIP5K3; read-out: % inhibition (range)): 75 to 90%
inhibition at 10 µM (PIP5K3; read-out: inhibition (10 μM)): 83.4%
% inhibition (range) (PITSLRE; 10 μM): 0.0%
inhibition (10 μM) (PITSLRE): −6.3%
inhibition at 10 µM (RSK2 domain1; read-out: % inhibition (range)): 0%
inhibition at 10 µM (RSK2 domain1; read-out: inhibition (10 μM)): 20.3%
% inhibition (range) (MST1, MST2; 10 μM): >90%
inhibition (10 μM) (MST1, MST2): 97.5%
inhibition at 10 µM (CK1g3; read-out: % inhibition (range)): > 90%
inhibition at 10 µM (CK1g3; read-out: inhibition (10 μM)): 93.8%
inhibition at 10 µM (TAO2; read-out: % inhibition (range)): 50 to 75%
inhibition at 10 µM (TAO2; read-out: inhibition (10 μM)): 61.5%
inhibition at 10 µM (TLK2; read-out: % inhibition (range)): 0%
inhibition at 10 µM (TLK2; read-out: inhibition (10 μM)): 14.2%
inhibition at 10 µM (MAP2K4; read-out: % inhibition (range)): 0%
inhibition at 10 µM (MAP2K4; read-out: inhibition (10 μM)): 32.5%
